Measured values published in PubChem BioAssay (NCI).
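Grown in 96-well plates, cells were treated for 48 hours with each compound at five concentrations. Insufficient inhibition: endpoint recorded as highest concentration tested. Abbreviation: GI50, concentration required for 50% inhibition of growth. Definition used: TGI = concentration required for complete inhibition of growth.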

Assays:
Assay in all cases: NCI anticancer screen, dose series, 48 h; in the data active = GI50 below about 0.43 µM; inactive = the rest
CCRF-CEM leukemia = tested on: CCRF-CEM leukemia
LOX IMVI melanoma = tested on: LOX IMVI melanoma
TK-10 renal = tested on: TK-10 renal
SK-MEL-5 melanoma = tested on: SK-MEL-5 melanoma
DU-145 prostate = tested on: DU-145 prostate
EKVX NSCLC = tested on: EKVX NSCLC
SN12C renal = tested on: SN12C renal
UO-31 renal = tested on: UO-31 renal
MOLT-4 leukemia = tested on: MOLT-4 leukemia
MDA-MB-435 = tested on: MDA-MB-435
786-0 renal = tested on: 786-0 renal
OVCAR-5 ovarian = tested on: OVCAR-5 ovarian
HCT-15 colon = tested on: HCT-15 colon
HOP-62 NSCLC = tested on: HOP-62 NSCLC
HOP-92 NSCLC = tested on: HOP-92 NSCLC
SK-MEL-2 melanoma = tested on: SK-MEL-2 melanoma
UACC-257 melanoma = tested on: UACC-257 melanoma
IGROV1 ovarian = tested on: IGROV1 ovarian
PC-3 prostate = tested on: PC-3 prostate
ACHN renal = tested on: ACHN renal
MALME-3M melanoma = tested on: MALME-3M melanoma
RXF 393 renal = tested on: RXF 393 renal
RPMI-8226 leukemia = tested on: RPMI-8226 leukemia
U251 CNS = tested on: U251 CNS
NCI-H226 lung = tested on: NCI-H226 lung
A498 renal = tested on: A498 renal
NCI-H522 lung = tested on: NCI-H522 lung
COLO 205 colon = tested on: COLO 205 colon
OVCAR-4 ovarian = tested on: OVCAR-4 ovarian
UACC-62 melanoma = tested on: UACC-62 melanoma
SW-620 colon = tested on: SW-620 colon
HT29 colon = tested on: HT29 colon
SK-MEL-28 melanoma = tested on: SK-MEL-28 melanoma
KM12 colon = tested on: KM12 colon
SNB-19 CNS = tested on: SNB-19 CNS
SF-268 CNS = tested on: SF-268 CNS
SR leukemia = tested on: SR leukemia
CAKI-1 renal = tested on: CAKI-1 renal
NCI-H460 lung = tested on: NCI-H460 lung
HS 578T breast = tested on: HS 578T breast
HL-60(TB) leukemia = tested on: HL-60(TB) leukemia
HCT-116 colon = tested on: HCT-116 colon
HCC-2998 colon = tested on: HCC-2998 colon
SK-OV-3 ovarian = tested on: SK-OV-3 ovarian
MDA-MB-231 breast = tested on: MDA-MB-231 breast
OVCAR-3 ovarian = tested on: OVCAR-3 ovarian
K-562 leukemia = tested on: K-562 leukemia
BT-549 breast = tested on: BT-549 breast
MCF7 breast = tested on: MCF7 breast
SF-295 CNS = tested on: SF-295 CNS
SNB-75 CNS = tested on: SNB-75 CNS
SF-539 CNS = tested on: SF-539 CNS
A549 NSCLC = tested on: A549 NSCLC
OVCAR-8 ovarian = tested on: OVCAR-8 ovarian
M14 melanoma = tested on: M14 melanoma
NCI-H23 lung = tested on: NCI-H23 lung

N#Cc1nc(-c2cccnc2)oc1N
> 100 µM: TGI (CCRF-CEM leukemia) | TGI (LOX IMVI melanoma) | TGI (TK-10 renal) | TGI (SK-MEL-5 melanoma) | TGI (DU-145 prostate) | TGI (EKVX NSCLC) | TGI (SN12C renal) | TGI (UO-31 renal) | TGI (MOLT-4 leukemia) | TGI (MDA-MB-435) | TGI (786-0 renal) | TGI (OVCAR-5 ovarian) | TGI (HCT-15 colon) | TGI (HOP-62 NSCLC) | TGI (HOP-92 NSCLC) | TGI (SK-MEL-2 melanoma) | TGI (UACC-257 melanoma) | TGI (IGROV1 ovarian) | TGI (PC-3 prostate) | TGI (ACHN renal) | TGI (MALME-3M melanoma) | TGI (RXF 393 renal) | TGI (RPMI-8226 leukemia) | TGI (U251 CNS) | TGI (NCI-H226 lung) | TGI (A498 renal) | TGI (NCI-H522 lung) | TGI (COLO 205 colon) | TGI (OVCAR-4 ovarian) | TGI (UACC-62 melanoma) | TGI (SW-620 colon) | TGI (HT29 colon) | TGI (SK-MEL-28 melanoma) | TGI (KM12 colon) | TGI (SNB-19 CNS) | TGI (SF-268 CNS) | TGI (SR leukemia) | TGI (CAKI-1 renal) | TGI (NCI-H460 lung) | TGI (HS 578T breast) | TGI (HL-60(TB) leukemia) | TGI (HCT-116 colon) | TGI (HCC-2998 colon) | TGI (SK-OV-3 ovarian) | TGI (MDA-MB-231 breast) | TGI (OVCAR-3 ovarian) | TGI (K-562 leukemia)

CCOC(=O)c1ccc(NC(=O)Nc2nccs2)cc1
39.8 µM: TGI (PC-3 prostate)
40.4 µM: TGI (HOP-92 NSCLC)
24 µM: TGI (IGROV1 ovarian)
0.688 µM: TGI (NCI-H522 lung)
0.669 µM: TGI (TK-10 renal)
0.385 µM: TGI (SF-539 CNS)
active: GI50 (LOX IMVI melanoma) 0.0987 µM | GI50 (TK-10 renal) 0.0381 µM | GI50 (SK-MEL-5 melanoma) 0.0285 µM | GI50 (DU-145 prostate) 0.107 µM | GI50 (BT-549 breast) 0.328 µM | GI50 (EKVX NSCLC) 0.162 µM | GI50 (SN12C renal) 0.371 µM | GI50 (MOLT-4 leukemia) 0.379 µM | GI50 (HCT-15 colon) 0.0364 µM | GI50 (MCF7 breast) 0.0309 µM | GI50 (IGROV1 ovarian) 0.064 µM | GI50 (ACHN renal) 0.297 µM | GI50 (RXF 393 renal) 0.0434 µM | GI50 (U251 CNS) 0.0478 µM | GI50 (SF-539 CNS) 0.106 µM | GI50 (NCI-H226 lung) 0.363 µM | GI50 (A498 renal) 0.0795 µM | GI50 (NCI-H522 lung) 0.0724 µM | GI50 (A549 NSCLC) 0.0725 µM | GI50 (COLO 205 colon) 0.0336 µM | GI50 (OVCAR-4 ovarian) 0.0631 µM | GI50 (UACC-62 melanoma) 0.044 µM | GI50 (SW-620 colon) 0.0283 µM | GI50 (OVCAR-8 ovarian) 0.0532 µM | GI50 (HT29 colon) 0.0336 µM | GI50 (SK-MEL-28 melanoma) 0.0712 µM | GI50 (KM12 colon) 0.11 µM | GI50 (M14 melanoma) 0.0346 µM | GI50 (SNB-19 CNS) 0.128 µM | GI50 (SF-268 CNS) 0.201 µM | GI50 (SR leukemia) 0.0302 µM | GI50 (CAKI-1 renal) 0.398 µM | GI50 (NCI-H460 lung) 0.0375 µM | GI50 (NCI-H23 lung) 0.0668 µM | GI50 (HS 578T breast) 0.033 µM | GI50 (HCT-116 colon) 0.0605 µM | GI50 (HCC-2998 colon) 0.204 µM | GI50 (SK-OV-3 ovarian) 0.0445 µM | GI50 (MDA-MB-231 breast) 0.275 µM | GI50 (K-562 leukemia) 0.0314 µM
7.76 µM: TGI (HL-60(TB) leukemia)
0.568 µM: TGI (A498 renal)
42.8 µM: TGI (SNB-19 CNS)
30.1 µM: TGI (K-562 leukemia)
inactive: GI50 (CCRF-CEM leukemia) 0.448 µM | GI50 (UO-31 renal) 0.49 µM | GI50 (786-0 renal) 0.716 µM | GI50 (OVCAR-5 ovarian) 1.1 µM | GI50 (HOP-62 NSCLC) 2.51 µM | GI50 (HOP-92 NSCLC) 5.25 µM | GI50 (SK-MEL-2 melanoma) 0.819 µM | GI50 (UACC-257 melanoma) 11.1 µM | GI50 (SF-295 CNS) 0.627 µM | GI50 (PC-3 prostate) 0.443 µM | GI50 (SNB-75 CNS) 1.55 µM | GI50 (MALME-3M melanoma) 1.24 µM | GI50 (RPMI-8226 leukemia) 0.698 µM | GI50 (HL-60(TB) leukemia) 0.459 µM
0.69 µM: TGI (DU-145 prostate)
25.1 µM: TGI (U251 CNS)
46.8 µM: TGI (SK-MEL-2 melanoma)
2.54 µM: TGI (BT-549 breast)
24.1 µM: TGI (UACC-257 melanoma)
2.98 µM: TGI (MDA-MB-231 breast)
27.1 µM: TGI (SN12C renal)
> 45.5 µM: TGI (HCT-15 colon)
0.211 µM: TGI (SK-MEL-5 melanoma)
31.5 µM: TGI (MALME-3M melanoma)
36.6 µM: TGI (NCI-H23 lung)
1.01 µM: TGI (KM12 colon)
2.06 µM: TGI (NCI-H460 lung)
> 100 µM: TGI (CCRF-CEM leukemia) | TGI (OVCAR-5 ovarian) | TGI (ACHN renal) | TGI (RXF 393 renal) | TGI (M14 melanoma)
9.76 µM: TGI (SK-OV-3 ovarian)
> 48.9 µM: TGI (SNB-75 CNS)
> 45.1 µM: TGI (HOP-62 NSCLC)
4.45 µM: TGI (HCC-2998 colon)
31.3 µM: TGI (MOLT-4 leukemia)
15.5 µM: TGI (SF-295 CNS)
50.1 µM: TGI (LOX IMVI melanoma)
> 66.3 µM: TGI (OVCAR-4 ovarian)
13.9 µM: TGI (MCF7 breast)
> 39.5 µM: TGI (RPMI-8226 leukemia)
16.9 µM: TGI (SF-268 CNS)
33.2 µM: TGI (HS 578T breast)
0.117 µM: TGI (COLO 205 colon)
> 96.6 µM: TGI (EKVX NSCLC)
57.8 µM: TGI (UO-31 renal)
35.6 µM: TGI (SW-620 colon)
3.17 µM: TGI (OVCAR-8 ovarian)
> 46.4 µM: TGI (786-0 renal)
44.8 µM: TGI (CAKI-1 renal)
25.8 µM: TGI (SK-MEL-28 melanoma)
20.4 µM: TGI (UACC-62 melanoma)
